This is an account of results in patent US12350306B2, “Modifying taste and sensory irritation of smokeless tobacco and non-tobacco products” (Altria Client Services LLC, priority 2013, dated 2025).

For assay [1] the following is noted: experimental animal models; cited from earlier work.
Another assay deals with TRPV1 channel (Homo sapiens, UniProt Q8NER1). To be noted: cited from earlier work.
A short description of assay [2]: Perceived bitterness of caffeinated water formulations. It is filed as in vivo. To be noted: caffeinated water formulation. The protocol:
Liquid formulations were prepared by combining caffeinated water or commercially available grapefruit juice with Cremophor® alone, citric acid alone or the combination of Cremophor® and citric acid. […] Because grapefruit juice naturally contains citric acid, citric acid was not added to the grapefruit juice formulations.

Sequence of TRPV1 channel (Q8NER1 whole entry): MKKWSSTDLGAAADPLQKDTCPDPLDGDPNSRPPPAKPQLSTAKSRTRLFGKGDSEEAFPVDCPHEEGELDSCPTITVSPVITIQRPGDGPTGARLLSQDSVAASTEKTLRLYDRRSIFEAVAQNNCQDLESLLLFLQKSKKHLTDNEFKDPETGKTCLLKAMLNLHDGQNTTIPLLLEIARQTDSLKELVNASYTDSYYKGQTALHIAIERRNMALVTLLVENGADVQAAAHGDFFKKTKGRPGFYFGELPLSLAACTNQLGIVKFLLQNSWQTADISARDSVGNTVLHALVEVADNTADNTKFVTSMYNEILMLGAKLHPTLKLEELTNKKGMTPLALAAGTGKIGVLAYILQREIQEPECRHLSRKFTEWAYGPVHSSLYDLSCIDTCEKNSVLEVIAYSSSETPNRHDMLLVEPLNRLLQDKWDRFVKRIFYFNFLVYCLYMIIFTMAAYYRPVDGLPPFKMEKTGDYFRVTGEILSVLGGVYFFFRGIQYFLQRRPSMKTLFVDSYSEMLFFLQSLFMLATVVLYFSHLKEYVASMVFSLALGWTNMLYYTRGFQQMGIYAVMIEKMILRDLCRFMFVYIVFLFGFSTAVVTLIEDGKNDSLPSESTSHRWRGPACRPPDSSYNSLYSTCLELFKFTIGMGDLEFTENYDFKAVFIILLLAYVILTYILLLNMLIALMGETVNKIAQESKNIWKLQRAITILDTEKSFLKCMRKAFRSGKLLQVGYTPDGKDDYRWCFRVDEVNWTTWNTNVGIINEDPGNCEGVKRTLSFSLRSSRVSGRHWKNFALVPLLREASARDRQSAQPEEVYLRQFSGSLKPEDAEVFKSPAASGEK

As to `CCCCCC[C@@H](O)C/C=C/CCCCCCCC(=O)O` (stereo in doubt) [Ricinoleic acid, 12-hydroxy-9-cis-octadecenoic acid], the anti-inflammatory effects result in assay [1] was “anti-inflammatory effects”. Further, the TRPV1 channel desensitization result on TRPV1 channel was “can desensitize the TRPV1 channel”.

Take `O=C(O)CC(O)(CC(=O)O)C(=O)O` [citric acid]: in assay [2], the perceived bitterness result is “little noticeable effect”.
